Test results as given in patent US6737383B1, “Herbicidal oxadiazolidines” (priority 1999, dated 2004).

What was measured:
bamyardgrass = test: Test B flood test barnyardgrass; assay type: in vivo, Echinochloa crus-galli
In short: (§1)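 Each value is a visual injury score relative to controls, with 10 meaning complete control and 0 no effect. Evaluation took place twelve to sixteen days after the 2-leaf-stage plants were treated and kept in the greenhouse.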

giant foxtail = test: Test B pre/postemergence giant foxtail; assay type: in vivo, Setaria faberii
In short: (§2)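 Test chemicals in a non-phytotoxic solvent mixture with surfactant were sprayed preemergence onto planted seeds and postemergence onto plants 2 to 18 cm tall (1- to 4-leaf stage). After twelve to sixteen days in a greenhouse, injury was visually rated against untreated controls from 0 (no effect) to 10 (complete control).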

sugar beet = test: Test B pre/postemergence sugar beet; assay type: in vivo, Beta vulgaris
In short: as §2

velvetleaf = test: Test B pre/postemergence velvetleaf; assay type: in vivo, Abutilon theophrasti
In short: as §2

rape = test: Test B pre/postemergence rape; assay type: in vivo, Brassica napus
In short: as §2

soybean = test: Test B pre/postemergence soybean; assay type: in vivo, Glycine max
In short: as §2

crabgrass = test: Test B pre/postemergence crabgrass; assay type: in vivo, Digitaria sanguinalis
In short: as §2

blackgrass = test: Test B pre/postemergence blackgrass; assay type: in vivo, Alopecurus myosuroides
In short: as §2

cocklebur = test: Test B pre/postemergence cocklebur; assay type: in vivo, Xanthium strumarium
In short: as §2

purple nutsedge = test: Test B pre/postemergence purple nutsedge; assay type: in vivo, Cyperus rotundus
In short: as §2

morningglory = test: Test B pre/postemergence morningglory; assay type: in vivo, Ipomoea hederacea
In short: as §2

pigweed = test: Test B pre/postemergence pigweed; assay type: in vivo, Amaranthus retroflexus
In short: as §2

smallflower flatsedge = test: Test B flood test smallflower flatsedge; assay type: in vivo, Cyperus difformis
In short: as §1

corn = test: Test B pre/postemergence corn; assay type: in vivo, Zea mays
In short: as §2

surinam grass = test: Test B pre/postemergence surinam grass; assay type: in vivo, Brachiaria decumbens
In short: as §2

wild oat = test: Test B pre/postemergence wild oat; assay type: in vivo, Avena fatua
In short: as §2

[1] = Postemergence (flood test species), Rate 125 g/ha, scale of 0 to 10 where 0 is no effect and 10 is complete control
[2] = Rate 62 g/ha, Postemergence section, flood test species, scale of 0 to 10 where 0 is no effect and 10 is complete control
[3] = Rate 250 g/ha, Postemergence (flood test), scale 0 to 10, 0 is no effect, 10 is complete control
[4] = Rate 500 g/ha, listed under Postemergence (flood test species), scale 0 to 10
[5] = Postemergence, Rate 125 g/ha, scale of 0 to 10 where 0 is no effect and 10 is complete control
[6] = Preemergence, Rate 62 g/ha, scale of 0 to 10 where 0 is no effect and 10 is complete control
[7] = Preemergence, Rate 125 g/ha, 0 is no effect, 10 is complete control
[8] = Preemergence, Rate 250 g/ha, scale 0 to 10, 0 is no effect, 10 is complete control
[9] = Preemergence, Rate 500 g/ha, scale 0 to 10 (0 no effect, 10 complete control)
[10] = Rate 62 g/ha, Postemergence, scale of 0 to 10 where 0 is no effect and 10 is complete control
[11] = Rate 250 g/ha, Postemergence, scale 0 to 10, 0 is no effect, 10 is complete control
[12] = Rate 500 g/ha, Postemergence, scale 0 to 10

## Cc1nsc(C)c1-n1c(=O)on(C(=O)N(c2ccc(Cl)cc2)C(C)C)c1=O [Compound 159]
bamyardgrass; [1]
  Barnyardgrass plant response rating: 0
bamyardgrass; [2]
  Barnyardgrass plant response rating: 0
bamyardgrass; [3]
  Plant response rating, Barnyardgrass: 0
bamyardgrass; [4]
  Barnyardgrass plant response rating: 0
Giant foxtail; [5]
  Giant foxtail plant response rating: 0
Giant foxtail; [6]
  Giant foxtail plant response rating: 0
Giant foxtail; [7]
  Giant foxtail plant response rating (0 to 10 scale): 0
Giant foxtail; [8]
  Giant foxtail plant response rating: 0
Giant foxtail; [9]
  Giant foxtail plant response rating: 0
Giant foxtail; [10]
  Giant foxtail plant response rating: 0
Giant foxtail; [11]
  Plant response rating, Giant foxtail: 0
Giant foxtail; [12]
  Giant foxtail plant response rating: 0
Sugar beet; [5]
  Sugarbeets plant response rating: 0
Sugar beet; [6]
  Sugarbeets plant response rating: 0
Sugar beet; [7]
  Sugarbeets plant response rating (0 to 10 scale): 0
Sugar beet; [8]
  Sugarbeets plant response rating: 0
Sugar beet; [9]
  Sugarbeets plant response rating: 0
Sugar beet; [10]
  Sugarbeets plant response rating: 0
Sugar beet; [11]
  Plant response rating, Sugarbeets: 0
Sugar beet; [12]
  Sugarbeets plant response rating: 0
velvetleaf; [6]
  Velvetleaf plant response rating: 0
velvetleaf; [7]
  Velvetleaf plant response rating (0 to 10 scale): 0
velvetleaf; [8]
  Velvetleaf plant response rating: 0
velvetleaf; [9]
  Velvetleaf plant response rating: 0
velvetleaf; [11]
  Plant response rating, Velvetleaf: 0
velvetleaf; [12]
  Velvetleaf plant response rating: 0
rape; [5]
  Rape plant response rating: 0
rape; [6]
  Rape plant response rating: 0
rape; [7]
  Rape plant response rating (0 to 10 scale): 0
rape; [8]
  Rape plant response rating: 0
rape; [9]
  Rape plant response rating: 0
rape; [10]
  Rape plant response rating: 0
rape; [11]
  Plant response rating, Rape: 0
rape; [12]
  Rape plant response rating: 0
soybean; [5]
  Soybean plant response rating: 3
soybean; [6]
  Soybean plant response rating: 0
soybean; [7]
  Soybean plant response rating (0 to 10 scale): 0
soybean; [8]
  Soybean plant response rating: 0
soybean; [9]
  Soybean plant response rating: 0
soybean; [10]
  Soybean plant response rating: 0
soybean; [11]
  Plant response rating, Soybean: 3
soybean; [12]
  Soybean plant response rating: 3
crabgrass; [5]
  Crabgrass plant response rating: 0
crabgrass; [6]
  Crabgrass plant response rating: 0
crabgrass; [7]
  Crabgrass plant response rating (0 to 10 scale): 0
crabgrass; [8]
  Crabgrass plant response rating: 0
crabgrass; [9]
  Crabgrass plant response rating: 0
crabgrass; [10]
  Crabgrass plant response rating: 0
crabgrass; [11]
  Plant response rating, Crabgrass: 0
crabgrass; [12]
  Crabgrass plant response rating: 0
blackgrass; [5]
  Blackgrass plant response rating: 0
blackgrass; [6]
  Blackgrass plant response rating: 0
blackgrass; [7]
  Blackgrass plant response rating (0 to 10 scale): 0
blackgrass; [8]
  Blackgrass plant response rating: 0
blackgrass; [9]
  Blackgrass plant response rating: 0
blackgrass; [10]
  Blackgrass plant response rating: 0
blackgrass; [11]
  Plant response rating, Blackgrass: 0
blackgrass; [12]
  Blackgrass plant response rating: 0
cocklebur; [5]
  Cocklebur plant response rating: 0
cocklebur; [6]
  Cocklebur plant response rating: 0
cocklebur; [7]
  Cocklebur plant response rating (0 to 10 scale): 0
cocklebur; [8]
  Cocklebur plant response rating: 0
cocklebur; [9]
  Cocklebur plant response rating: 0
cocklebur; [10]
  Cocklebur plant response rating: 0
cocklebur; [11]
  Plant response rating, Cocklebur: 0
cocklebur; [12]
  Cocklebur plant response rating: 0
Purple nutsedge; [5]
  Nutsedge plant response rating: 0
Purple nutsedge; [6]
  Nutsedge plant response rating: 0
Purple nutsedge; [7]
  Nutsedge plant response rating (0 to 10 scale): 0
Purple nutsedge; [8]
  Nutsedge plant response rating: 0
Purple nutsedge; [9]
  Nutsedge plant response rating: 0
Purple nutsedge; [10]
  Nutsedge plant response rating: 0
Purple nutsedge; [11]
  Plant response rating, Nutsedge: 0
Purple nutsedge; [12]
  Nutsedge plant response rating: 0
morningglory; [5]
  Morningglory plant response rating: 2
morningglory; [6]
  Morningglory plant response rating: 0
morningglory; [7]
  Morningglory plant response rating (0 to 10 scale): 0
morningglory; [8]
  Morningglory plant response rating: 0
morningglory; [9]
  Morningglory plant response rating: 0
morningglory; [10]
  Morningglory plant response rating: 0
morningglory; [11]
  Plant response rating, Morningglory: 3
morningglory; [12]
  Morningglory plant response rating: 4
pigweed; [5]
  Redroot pigweed plant response rating: 0
pigweed; [6]
  Redroot pigweed plant response rating: 0
pigweed; [7]
  Redroot pigweed plant response rating (0 to 10 scale): 0
pigweed; [8]
  Redroot pigweed plant response rating: 0
pigweed; [9]
  Redroot pigweed plant response rating: 0
pigweed; [10]
  Redroot pigweed plant response rating: 0
pigweed; [11]
  Plant response rating, Redroot pigweed: 0
pigweed; [12]
  Redroot pigweed plant response rating: 0
Smallflower flatsedge; [1]
  S. Flatsedge plant response rating: 0
Smallflower flatsedge; [2]
  S. Flatsedge plant response rating: 0
Smallflower flatsedge; [3]
  Plant response rating, S. Flatsedge: 0
Smallflower flatsedge; [4]
  S. Flatsedge plant response rating: 0
corn; [5]
  Corn plant response rating: 0
corn; [6]
  Corn plant response rating: 0
corn; [7]
  Corn plant response rating (0 to 10 scale): 0
corn; [8]
  Corn plant response rating: 0
corn; [9]
  Corn plant response rating: 0
corn; [10]
  Corn plant response rating: 0
corn; [11]
  Plant response rating, Corn: 0
corn; [12]
  Corn plant response rating: 0
Surinam grass; [5]
  B. signalgrass plant response rating: 0
Surinam grass; [6]
  B. signalgrass plant response rating: 0
Surinam grass; [7]
  B. signalgrass plant response rating (0 to 10 scale): 0
Surinam grass; [8]
  B. signalgrass plant response rating: 0
Surinam grass; [9]
  B. signalgrass plant response rating: 0
Surinam grass; [10]
  B. signalgrass plant response rating: 0
Surinam grass; [11]
  Plant response rating, B. signalgrass: 0
Surinam grass; Rate 500 g/ha, Postemergence, scale 0 to 10, 0 no effect, 10 complete control
  B. signalgrass plant response rating: 0
Wild oat; [6]
  Wild oats plant response rating: 0
Wild oat; [7]
  Wild oats plant response rating (0 to 10 scale): 0
Wild oat; [8]
  Wild oats plant response rating: 0
Wild oat; [9]
  Wild oats plant response rating: 0
Wild oat; [11]
  Plant response rating, Wild oats: 0
Wild oat; [12]
  Wild oats plant response rating: 0
